From patent US5348960A, “Imidazo[4,5-b]quinolinyl oxy alkyl tetrazolyl piperidine derivatives” (Bristol-Myers Squibb Company, priority 1993, dated 1994)
≈ marks a conversion by molar mass, not a printed value. Counter-ions that a name gives are not always drawn.

Legend:
[1] = system: ADP-induced aggregation of human blood platelets; assay: cells; assay type: cell-based; details: Platelet, read-out: IC50 vs ADP in human PRP
Description: The aggregometer method of Born, C. V. R., J. Physiol., (London), 162, 67-68, (1962) as modified by Mustard, J. F., et al., J. Lab. Clin. Med., 64, 548-599, (1964) was used to assess the in vitro activity of the various compounds as to the inhibition of adenosine diphosphate (ADP) and collagen-induced platelet aggregation. The human volunteer donor's arm is cleansed with 70% ethyl alcohol. A sterile 20 ml syringe and needle are used to withdraw 20 ml of blood. The blood is immediately added to a test tube containing 3.8% sodium citrate to prevent clotting (1 part citrate to 9 parts blood).
Platelet rich plasma (PRP) was separated by centrifugation for 10 minutes at 1000 rpm (140xg) from citrated (3.8%) human blood. All glassware used for preparation of PRP is silicon treated. ADP in final concentration of 0.5 μg/mL or 0.05 mL of a collagen suspension prepared according to the method described by Evans, G., et al., J. Exp. Med., 128, 877-894, (1968) was used to induce aggregation. The various compounds tested were dissolved in dimethylsulfoxide (DMSO) so that 5 μl added to the platelet rich plasma would yield the desired test concentration. Vehicle control trials were done and compared with aggregation induced in platelet rich plasma containing various concentrations of the test compounds. Dose response curves were obtained and Inhibitor Concentration (IC50) values calculated.
The target compounds were evaluated as inhibitors of ADP-induced aggregation of human blood platelets in platelet-rich-plasma (PRP) in vitro. The test compounds were incubated at about 37° C. in PRP for about 3 minutes prior to the addition of sufficient ADP to provide a final ADP concentration of 5.86 μM.

aqueous solubility = assay type: physicochemical; details: water, dihydrochloride salts

Row | SMILES | IC50 [1] [µg/mL] | solubility (aqueous solubility) [µg/mL]
1 | Oc1nc2cc3cc(OCCCc4nnnn4C4CCN(Cc5ccc(F)cc5)CC4)ccc3[nH]c-2n1 [Cmpd 12c, [5-[3-(2,3-Dihydro-2-oxo-1H-imidazo[4,5-b]quinolin-7-yloxy)propyl]-1H-tetrazol-l-yl]-1-[(4-fluorophyl)methyl]piperidine dihydrochloride] | 0.019 | > 10000
2 | Oc1nc2cc3cc(OCCCc4nnnn4C4CCNCC4)ccc3[nH]c-2n1 [Cmpd 12a, [5-[3-(2,3-Dihydro-2-oxo-1H-imidazo[4,5-b]quinolin-7-yloxy)propyl]-1H-tetrazol-1-yl]piperidine dihydrochloride] | 5.4 | > 20000
3 | Cl.Cl.O=c1[nH]c2cc3cc(OCCCc4nnnn4C4CCN(CC5CCCC5)CC4)ccc3nc2[nH]1 [Cmpd 12h, 1-Cyclopentylmethyl-4-[5-[3-(2,3-dihydro-2-oxo-1H-imidazo[4,5-b]quinolin-7-yloxy)propyl]-1H-tetrazol-1-yl]piperidine dihydrochloride] | 0.005 | 2000 to 3000
4 | Oc1nc2cc3cc(OCCCc4nnnn4C4CCN(CC5CCCCO5)CC4)ccc3[nH]c-2n1 (stereo not drawn) [Cmpd 12k, [5-[3-(2,3-Dihydro-2-oxo-1H-imidazo[4,5-b]quinolin-7-yloxy)propyl]-1H-tetrazol-1-yl]-1-[(terahydro-2H-pyran-2-yl)methyl]piperidine dihydrochloride] | 0.04 | > 10000
5 | Oc1nc2cc3cc(OCCCCc4nnnn4C4CCN(CC5CCCCC5)CC4)ccc3[nH]c-2n1 [Cmpd 13d, dihydrochloride] | 0.012 | > 5000
6 | CCOC(=O)N1CCC(n2nnnc2CCCOc2ccc3nc4[nH]c(=O)[nH]c4cc3c2)CC1 [Cmpd 10a, Ethyl 4-[5-[3-(2,3-dihydro-2-oxo-1H-imidazo[4,5-b]quinolin-7-yloxy)propyl]-1H-tetrazol-1-yl]-1-piperidinecarboxylate] | 0.2 (≈ 0.429 µM) | –
7 | Oc1nc2cc3cc(OCCCCc4nnnn4C4CCN(Cc5ccc(F)cc5)CC4)ccc3[nH]c-2n1 [Cmpd 13c, dihydrochloride] | 0.031 | > 5000
8 | CC(C)CN1CCC(n2nnnc2CCCOc2ccc3nc4[nH]c(=O)[nH]c4cc3c2)CC1 [Cmpd 12f, [5-[3-(2,3-Dihydro-2-oxo-1H-imidazo[4,5-b]quinolin-7-yloxy)propyl]-1H-tetrazol-1-yl]-1-(2-methylprop-1-yl) piperidine dihydrochloride] | 0.005 | > 10000
9 | Oc1nc2cc3cc(OCCCCc4nnnn4C4CCNCC4)ccc3[nH]c-2n1 [Cmpd 13a, dihydrochloride] | 2.6 | ~5000
10 | Oc1nc2cc3cc(OCCCc4nnnn4C4CCN(CCc5ccccc5)CC4)ccc3[nH]c-2n1 [Cmpd 12g, [5-[3-f 2,3-Dihydro-2-oxo-1H-imidazo[4,5-b]quinolin-7-yloxy)propyl]-1H-tetrazol-1-yl]-1-(2-phenylethyl) piperidine dihydrochloride] | 0.048 | < 5000
11 | CCC(CC)CN1CCC(n2nnnc2CCCCOc2ccc3nc4[nH]c(=O)[nH]c4cc3c2)CC1 [Cmpd 13e, [5-[3-(2,3-Dihydro-2-oxo-1H-imidazo[4,5-b]quinolin-7-yloxy)butyl]-1H-tetrazol-1-yl]-1-(2-ethybut-1-yl) piperidine dihyudrochloride] | 0.0068 (≈ 0.0138 µM) | > 5000
12 | Oc1nc2cc3cc(OCCCCc4nnnn4C4CCN(Cc5ccccc5)CC4)ccc3[nH]c-2n1 [Cmpd 13b, dihydrochloride] | 0.018 | > 5000
13 | Cl.Cl.O=c1[nH]c2cc3cc(OCCCc4nnnn4C4CCN(CC5CCCCCC5)CC4)ccc3nc2[nH]1 [Cmpd 12i, 1-Cycloheptylmethyl-4-[5-[3-(2,3-dihydro-2-oxo-1H-imidazo[4,5-b]quinolin-7-yl-oxy)propyl]-1H-tetrazol-1-yl]piperidine dihydrochloride] | 0.01 | ~1000
14 | CC(C)CN1CCC(n2nnnc2CCCCOc2ccc3nc4[nH]c(=O)[nH]c4cc3c2)CC1 [Cmpd 13f, dihydrochloride] | 0.005 | > 10000
15 | Oc1nc2cc3cc(OCCCc4nnnn4C4CCN(CC5CCCCC5)CC4)ccc3[nH]c-2n1 [Cmpd 12d, (Cyclohexylmethyl)-4-[5-[3-(2,3-dihydro-2-oxo-1H-imidazo[4,5-b]quinolin-7-yloxy)propyl]-1H-tetrazol-1-yl]piperidine dihydrochloride] | 0.009 | > 10000
16 | Oc1nc2cc3cc(OCCCc4nnnn4C4CCN(Cc5ccccc5)CC4)ccc3[nH]c-2n1 [Cmpd 12b, [5-[3-(2,3-Dihydro-2-oxo-1H-imidazo [4,5-b]quinolin-7-yloxy)propyl]-1H-tetrazol-l-yl]-1-(phenylmethyl) piperidine dihydrochloride] | 0.022 | > 10000
17 | CCC(CC)CN1CCC(n2nnnc2CCCOc2ccc3nc4[nH]c(=O)[nH]c4cc3c2)CC1 [Cmpd 12e, [5-[3-(2, 3 -Dihydro-2-oxo-1H-imidazo [4,5-b]quinolin-7-yloxy)propyl]-1l H-tetrazol-1-yl]-1-(2-ethylbut-1-yl) piperidine dihydrochloride] | 0.007 | > 10000
18 | CCCC(CCC)CN1CCC(n2nnnc2CCCOc2ccc3nc4[nH]c(=O)[nH]c4cc3c2)CC1 [Cmpd 12j, [5-[3-(2,3-Dihydro-2-oxo-1H-imidazo [4,5-b]quinolin-7-yloxy)propyl]-1H-tetrazol-1-yl]-1-(2-propylpent-1-yl) piperidine dihydrochloride] | 0.048 | ~2000
19 | CCOC(=O)N1CCC(n2nnnc2CCCCOc2ccc3nc4[nH]c(=O)[nH]c4cc3c2)CC1 [Cmpd 10b] | 0.05 (≈ 0.104 µM) | –
